Measured values reported in ChEMBL document CHEMBL5038589, “Design, Synthesis, and Structure-Activity Relationship of N-Aryl-N'-(thiophen-2-yl)thiourea Derivatives as Novel and Specific Human TLR1/2 Agonists for Potential Cancer Immunotherapy” (J Med Chem, 2021).
Active and inactive are the calls of the source. No cut-off for these calls is given here.

Target: T1, Toll-like receptor 2 (Homo sapiens, UniProt O60603)
Test: Agonist activity at TLR2 in HEK-Blue cells upto 200 uM incubated for 24 hrs by Quanti-Blue based SEAP assay
Format: cell-based
Conditions: HEK-Blue hTLR2, dose microM <=200, time 24.0 hrs

T1 sequence (O60603 whole entry): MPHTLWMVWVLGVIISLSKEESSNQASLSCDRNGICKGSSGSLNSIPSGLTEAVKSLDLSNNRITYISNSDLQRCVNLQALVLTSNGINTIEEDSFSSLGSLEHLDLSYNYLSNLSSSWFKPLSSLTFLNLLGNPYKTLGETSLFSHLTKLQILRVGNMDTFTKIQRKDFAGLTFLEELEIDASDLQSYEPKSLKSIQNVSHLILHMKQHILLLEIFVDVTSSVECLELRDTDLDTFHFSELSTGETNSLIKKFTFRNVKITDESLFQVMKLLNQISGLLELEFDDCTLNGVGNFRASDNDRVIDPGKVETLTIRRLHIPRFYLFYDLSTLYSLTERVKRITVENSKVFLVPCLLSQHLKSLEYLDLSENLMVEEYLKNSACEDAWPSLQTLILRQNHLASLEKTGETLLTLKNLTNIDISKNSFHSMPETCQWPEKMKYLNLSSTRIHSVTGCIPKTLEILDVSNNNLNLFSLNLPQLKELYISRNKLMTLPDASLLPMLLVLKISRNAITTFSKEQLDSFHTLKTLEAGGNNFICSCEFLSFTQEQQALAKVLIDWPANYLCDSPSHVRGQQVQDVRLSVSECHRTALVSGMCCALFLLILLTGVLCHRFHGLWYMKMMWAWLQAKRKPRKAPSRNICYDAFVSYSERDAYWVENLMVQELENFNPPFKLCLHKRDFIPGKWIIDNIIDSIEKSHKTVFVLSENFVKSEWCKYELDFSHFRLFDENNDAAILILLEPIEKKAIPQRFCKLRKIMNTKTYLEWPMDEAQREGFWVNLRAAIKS

Activity	Compound
inactive	CC(C)OC(=O)c1c(-c2ccccc2)csc1NC(=S)Nc1cccc2ccccc12
inactive	O=C(O)c1c(NC(=S)Nc2cccc3ccccc23)sc2c1CCC2
inactive	CCOC(=O)c1c(NC(=O)Nc2ccc(Cl)cc2)sc2c1CCCC2
inactive	COC(=O)c1c(NC(=O)Nc2ccc(C)cc2)sc2c1CCC2
inactive	COC(=O)c1c(NC(=S)NCCCSC)sc2c1CCCC2
inactive	CC(C)(C)OC(=O)c1c(NC(=S)Nc2cccc3ccccc23)sc2c1CCC2
inactive	CCOC(=O)c1c(NC(=O)Nc2ccc(Cl)cc2)sc2c1CCC2
inactive	CCOC(=O)c1c(NC(=O)Nc2ccc(Cl)c(Cl)c2)sc2c1CCC2
inactive	COC(=O)c1c(NC(=S)NCCc2ccccc2)sc2c1CCCC2
inactive	CCOC(=O)c1c(NC(=S)Nc2cccc3ccccc23)sc2c1CCN(C)C2
inactive	CC(C)OC(=O)c1ccsc1NC(=S)Nc1cccc2ccccc12
inactive	CC(C)(C)OC(=O)c1c(NC(=S)Nc2cccc3ccccc23)sc2c1CCCC2
inactive	CCOC(=O)c1ccsc1NC(=S)Nc1cccc2ccccc12
inactive	COC(=O)c1c(NC(=O)Nc2ccc(Cl)cc2)sc2c1CCC2
inactive	CCOC(=O)c1c(NC(=S)NCCCSC)sc2c1CCCC2
inactive	CCCCOC(=O)c1c(NC(=S)Nc2cccc3ccccc23)sc2c1CCCC2
inactive	CC(C)OC(=O)c1c(NC(=S)Nc2cccc3ccccc23)sc2c1CCN(C)C2
inactive	O=C(O)c1c(NC(=S)Nc2cccc3ccccc23)sc2c1CCCC2
inactive	CCOC(=O)c1c(NC(=O)Nc2cccc(Cl)c2)sc2c1CCC2
inactive	O=C(OCCc1ccccc1)c1c(NC(=S)Nc2cccc3ccccc23)sc2c1CCC2
inactive	CCOC(=O)c1c(NC(=O)Nc2ccc(Cl)c(Cl)c2)sc2c1CCCC2
inactive	CCOC(=O)c1c(-c2ccccc2)csc1NC(=S)Nc1cccc2ccccc12
inactive	COC(=O)c1c(NC(=O)Nc2ccc(Cl)cc2)sc2c1CCCC2

Target: T1, Toll-like receptor 2
Test: Agonist activity at TLR2 in HEK-Blue cells incubated for 24 hrs by Quanti-Blue based SEAP assay
Format: cell-based, HEK-Blue hTLR2
Conditions: not given

EC50 [µM]	Compound
11.9	CCOC(=O)c1c(NC(=O)Nc2ccccc2)sc2c1CCC2
11.9	CCOC(=O)c1c(NC(=S)Nc2ccc(C(F)(F)F)cc2)sc2c1CCCC2
28.5	CCOC(=O)c1c(N=C(S)Nc2ccccc2)sc2c1CCCCC2
14.6	CCOC(=O)c1c(NC(=O)Nc2ccc(C)cc2)sc2c1CCCC2
5.9	CCOC(=O)c1c(NC(=S)Nc2ccccc2)sc2c1CCC2
0.035	CC(C)OC(=O)c1c(NC(=S)Nc2ccc(F)c3ccccc23)sc2c1CCCC2
2.35	CCOC(=O)c1c(NC(=S)Nc2cccc3ccccc23)sc2c1CCCCC2
3.57	COC(=O)c1c(NC(=S)Nc2cccc3ccccc23)sc2c1CCC2
7.33	COC(=O)c1c(NC(=S)Nc2cccc3ccccc23)sc2c1CCCC2
0.14	CC(C)OC(=O)c1c(NC(=S)Nc2cccc3ccccc23)sc2c1CCCC2
14.1	COC(=O)c1c(NC(=S)Nc2ccccc2)sc2c1CCC2
14.7	COC(=O)c1c(NC(=S)Nc2ccccc2)sc2c1CCCC2
0.039	CC(C)OC(=O)c1c(NC(=S)Nc2ccc(Br)c3ccccc23)sc2c1CCC2
1.73	CCOC(=O)c1c(NC(=S)Nc2cccc3ccccc23)sc2c1CCC(C)C2 (configuration not stated)
30.4	CC(C)COC(=O)c1c(NC(=S)Nc2cccc3ccccc23)sc2c1CCCC2
0.82	CCCOC(=O)c1c(NC(=S)Nc2cccc3ccccc23)sc2c1CCC2
5.84	CCOC(=O)c1c(NC(=O)Nc2cccc3ccccc23)sc2c1CCCC2
28.2	CC(C)COC(=O)c1c(NC(=S)Nc2cccc3ccccc23)sc2c1CCC2
10.3	COC(=O)c1c(NC(=S)Nc2ccc(C)cc2)sc2c1CCCC2
8.77	CCOC(=O)c1c(NC(=S)Nc2ccc(C)cc2)sc2c1CCCC2
12.1	CCOC(=O)c1c(NC(=O)Nc2ccc(C)cc2)sc2c1CCC2
7.13	CCOC(=O)c1c(NC(=S)Nc2ccc(-c3ccccc3)cc2)sc2c1CCC2
12.1	CCOC(=O)c1c(NC(=S)Nc2ccc(F)cc2)sc2c1CCCC2
7.6	CCOC(=O)c1c(NC(=O)Nc2cccc3ccccc23)sc2c1CCC2
13.3	CCOC(=O)c1c(N=C(S)Nc2ccc(F)cc2)sc2c1CCC2
2.5	CCOC(=O)c1c(NC(=S)Nc2ccc(Cl)cc2)sc2c1CCC2
11.7	CCOC(=O)c1c(NC(=O)Nc2ccccc2)sc2c1CCCCC2
33.9	COC(=O)c1c(NC(=S)Nc2ccc(C(F)(F)F)cc2)sc2c1CCCC2

Target: T1, Toll-like receptor 2
Test: Binding affinity to recombinant human TLR2 expressed in H5 cells by surface plasmon resonance method
Conditions: not given

Kd [µM]	Compound
9	CCOC(=O)c1c(NC(=O)Nc2ccccc2)sc2c1CCCCC2
